From patent publication US9518052B2, “Pyrazolopyridines and pyrazolopyrimidines” (Pfizer Inc., priority 2014, dated 2016)
pIC50: −log10 of the molar value.

Experiments:
Assay type in all cases: biochemical
Details in all cases: Caliper assay at 1 mM ATP
JAK1 = JAK1 (Homo sapiens (Human), UniProt P23458); test: JAK Caliper Enzyme Assay at 1 mM ATP (JAK1)
JAK2 = JAK2 (Homo sapiens (Human), UniProt O60674); test: JAK Caliper Enzyme Assay at 1 mM ATP (JAK2)
JAK3 = JAK3 (Homo sapiens (Human), UniProt P52333); test: JAK Caliper Enzyme Assay at 1 mM ATP (JAK3)
TYK2 = TYK2 (Homo sapiens (Human), UniProt P29597); test: JAK Caliper Enzyme Assay at 1 mM ATP (TYK2)
Chain of TYK2 (P29597 whole entry, species assumed): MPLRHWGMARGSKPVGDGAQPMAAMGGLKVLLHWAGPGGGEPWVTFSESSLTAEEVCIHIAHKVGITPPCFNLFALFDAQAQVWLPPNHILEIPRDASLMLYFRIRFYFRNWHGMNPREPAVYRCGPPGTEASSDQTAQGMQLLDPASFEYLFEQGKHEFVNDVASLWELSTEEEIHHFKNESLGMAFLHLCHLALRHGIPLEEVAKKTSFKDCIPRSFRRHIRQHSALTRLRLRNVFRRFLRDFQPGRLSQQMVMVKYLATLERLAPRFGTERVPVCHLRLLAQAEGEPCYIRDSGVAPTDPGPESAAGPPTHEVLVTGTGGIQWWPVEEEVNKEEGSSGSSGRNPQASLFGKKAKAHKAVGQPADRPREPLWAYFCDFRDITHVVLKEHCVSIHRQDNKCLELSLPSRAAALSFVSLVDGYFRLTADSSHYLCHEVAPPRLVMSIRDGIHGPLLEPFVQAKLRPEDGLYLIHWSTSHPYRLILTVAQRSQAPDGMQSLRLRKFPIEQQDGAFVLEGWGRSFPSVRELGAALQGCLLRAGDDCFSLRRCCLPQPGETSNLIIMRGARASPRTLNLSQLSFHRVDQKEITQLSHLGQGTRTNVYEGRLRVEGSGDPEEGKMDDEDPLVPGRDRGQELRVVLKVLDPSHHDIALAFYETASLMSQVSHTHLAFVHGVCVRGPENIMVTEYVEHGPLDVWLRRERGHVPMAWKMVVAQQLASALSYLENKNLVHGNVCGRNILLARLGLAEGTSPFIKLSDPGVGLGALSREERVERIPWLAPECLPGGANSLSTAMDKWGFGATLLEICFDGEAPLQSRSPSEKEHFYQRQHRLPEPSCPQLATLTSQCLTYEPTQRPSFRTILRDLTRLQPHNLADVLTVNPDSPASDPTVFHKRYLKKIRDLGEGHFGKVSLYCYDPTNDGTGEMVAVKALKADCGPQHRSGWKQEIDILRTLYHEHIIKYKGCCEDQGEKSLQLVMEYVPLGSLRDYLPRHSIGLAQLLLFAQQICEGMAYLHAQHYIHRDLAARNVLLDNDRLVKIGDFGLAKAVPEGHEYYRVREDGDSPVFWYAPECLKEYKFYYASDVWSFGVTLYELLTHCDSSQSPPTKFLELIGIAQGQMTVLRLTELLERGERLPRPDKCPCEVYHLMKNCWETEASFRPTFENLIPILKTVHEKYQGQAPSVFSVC

Chain of JAK3 (P52333 whole entry, species assumed): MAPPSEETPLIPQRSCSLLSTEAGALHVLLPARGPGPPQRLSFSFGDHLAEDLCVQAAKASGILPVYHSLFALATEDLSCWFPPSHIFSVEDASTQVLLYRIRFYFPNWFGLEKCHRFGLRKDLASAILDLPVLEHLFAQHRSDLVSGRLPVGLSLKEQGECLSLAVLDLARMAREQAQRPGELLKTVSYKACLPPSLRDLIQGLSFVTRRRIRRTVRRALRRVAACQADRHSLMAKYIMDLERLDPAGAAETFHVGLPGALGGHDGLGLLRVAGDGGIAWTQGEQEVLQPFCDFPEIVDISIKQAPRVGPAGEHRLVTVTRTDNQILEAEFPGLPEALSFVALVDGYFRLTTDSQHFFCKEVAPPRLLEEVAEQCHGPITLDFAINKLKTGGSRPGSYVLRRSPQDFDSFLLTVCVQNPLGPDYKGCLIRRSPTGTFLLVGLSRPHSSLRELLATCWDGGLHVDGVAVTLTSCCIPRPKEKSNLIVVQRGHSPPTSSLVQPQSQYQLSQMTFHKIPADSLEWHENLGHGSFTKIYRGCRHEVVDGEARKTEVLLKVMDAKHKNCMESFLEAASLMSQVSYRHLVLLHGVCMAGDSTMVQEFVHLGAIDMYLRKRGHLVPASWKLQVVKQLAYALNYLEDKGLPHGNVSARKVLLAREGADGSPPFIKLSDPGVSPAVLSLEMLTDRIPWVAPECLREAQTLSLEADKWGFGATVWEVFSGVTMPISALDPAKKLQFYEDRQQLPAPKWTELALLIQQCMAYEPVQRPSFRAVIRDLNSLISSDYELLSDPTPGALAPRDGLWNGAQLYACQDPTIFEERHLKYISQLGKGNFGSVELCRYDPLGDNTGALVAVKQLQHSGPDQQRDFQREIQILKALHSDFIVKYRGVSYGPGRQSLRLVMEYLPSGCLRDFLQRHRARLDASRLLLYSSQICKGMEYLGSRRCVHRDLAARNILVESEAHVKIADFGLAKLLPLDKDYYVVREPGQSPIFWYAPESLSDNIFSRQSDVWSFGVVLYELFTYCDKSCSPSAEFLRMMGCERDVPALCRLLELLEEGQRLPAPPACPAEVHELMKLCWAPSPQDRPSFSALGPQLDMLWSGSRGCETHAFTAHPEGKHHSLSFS
Chain of JAK1 (P23458 whole entry, species assumed): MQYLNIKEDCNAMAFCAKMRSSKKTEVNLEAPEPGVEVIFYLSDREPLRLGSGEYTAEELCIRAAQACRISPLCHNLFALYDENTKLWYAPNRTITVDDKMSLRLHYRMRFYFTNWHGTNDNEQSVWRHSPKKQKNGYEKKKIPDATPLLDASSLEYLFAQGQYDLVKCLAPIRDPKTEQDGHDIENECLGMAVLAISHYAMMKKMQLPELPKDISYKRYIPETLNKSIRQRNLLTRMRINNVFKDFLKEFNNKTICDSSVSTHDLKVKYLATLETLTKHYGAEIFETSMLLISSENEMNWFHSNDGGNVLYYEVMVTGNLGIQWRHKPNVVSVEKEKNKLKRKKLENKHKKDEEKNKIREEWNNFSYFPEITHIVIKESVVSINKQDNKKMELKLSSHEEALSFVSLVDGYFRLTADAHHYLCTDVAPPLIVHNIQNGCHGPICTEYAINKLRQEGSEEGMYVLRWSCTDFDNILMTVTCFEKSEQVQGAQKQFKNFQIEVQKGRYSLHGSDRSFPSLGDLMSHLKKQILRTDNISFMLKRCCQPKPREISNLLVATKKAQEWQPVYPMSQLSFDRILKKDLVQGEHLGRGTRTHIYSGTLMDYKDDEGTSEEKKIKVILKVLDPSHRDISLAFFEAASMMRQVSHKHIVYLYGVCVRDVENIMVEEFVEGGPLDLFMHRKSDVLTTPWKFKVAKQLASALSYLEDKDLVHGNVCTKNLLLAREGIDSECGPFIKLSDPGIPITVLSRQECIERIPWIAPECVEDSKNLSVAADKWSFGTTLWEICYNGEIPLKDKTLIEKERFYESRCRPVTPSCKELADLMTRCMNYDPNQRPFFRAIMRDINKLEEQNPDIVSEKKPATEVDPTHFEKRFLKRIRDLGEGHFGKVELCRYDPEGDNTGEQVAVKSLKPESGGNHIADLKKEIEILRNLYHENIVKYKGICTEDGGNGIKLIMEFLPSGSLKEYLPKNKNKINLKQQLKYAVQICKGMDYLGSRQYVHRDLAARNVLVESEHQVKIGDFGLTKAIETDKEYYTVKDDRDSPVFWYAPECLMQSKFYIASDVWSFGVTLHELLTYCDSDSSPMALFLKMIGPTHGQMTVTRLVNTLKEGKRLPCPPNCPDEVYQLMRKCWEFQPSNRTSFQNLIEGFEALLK
Chain of JAK2 (O60674 whole entry, species assumed): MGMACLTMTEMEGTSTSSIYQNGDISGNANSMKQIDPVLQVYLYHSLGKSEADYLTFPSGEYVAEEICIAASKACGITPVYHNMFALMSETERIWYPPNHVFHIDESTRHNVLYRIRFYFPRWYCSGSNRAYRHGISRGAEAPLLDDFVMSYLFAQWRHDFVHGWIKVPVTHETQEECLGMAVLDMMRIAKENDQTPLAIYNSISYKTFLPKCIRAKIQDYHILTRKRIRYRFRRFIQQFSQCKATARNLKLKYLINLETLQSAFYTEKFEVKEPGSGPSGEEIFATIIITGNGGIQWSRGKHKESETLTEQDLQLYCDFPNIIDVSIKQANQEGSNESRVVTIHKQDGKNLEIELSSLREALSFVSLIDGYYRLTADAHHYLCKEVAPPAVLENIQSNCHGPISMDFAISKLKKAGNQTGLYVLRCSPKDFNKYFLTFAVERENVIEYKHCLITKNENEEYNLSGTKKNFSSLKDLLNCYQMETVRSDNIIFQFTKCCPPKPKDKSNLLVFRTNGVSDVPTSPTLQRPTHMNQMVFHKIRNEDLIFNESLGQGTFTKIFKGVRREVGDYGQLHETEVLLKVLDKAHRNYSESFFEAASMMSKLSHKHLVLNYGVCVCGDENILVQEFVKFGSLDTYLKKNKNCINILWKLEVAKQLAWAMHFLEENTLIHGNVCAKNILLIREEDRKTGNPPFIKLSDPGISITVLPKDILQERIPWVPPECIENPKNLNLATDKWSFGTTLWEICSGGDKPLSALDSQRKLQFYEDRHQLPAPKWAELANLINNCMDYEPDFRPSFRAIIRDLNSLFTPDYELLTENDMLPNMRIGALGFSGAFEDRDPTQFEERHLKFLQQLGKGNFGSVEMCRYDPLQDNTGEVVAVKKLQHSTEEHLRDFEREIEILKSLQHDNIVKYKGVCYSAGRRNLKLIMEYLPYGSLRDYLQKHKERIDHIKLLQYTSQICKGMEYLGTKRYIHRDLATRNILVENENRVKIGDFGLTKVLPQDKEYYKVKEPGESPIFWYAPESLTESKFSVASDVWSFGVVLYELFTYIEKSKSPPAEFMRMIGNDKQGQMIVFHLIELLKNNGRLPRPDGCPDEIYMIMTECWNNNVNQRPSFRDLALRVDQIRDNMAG

CN(c1ccccc1CNc1nc(-c2cc(F)c(O)cc2CC(F)(F)F)cc2[nH]nc(C(N)=O)c12)S(=O)(=O)CCCN1CCOCC1 [Example 66, 6-[5-fluoro-4-hydroxy-2-(2,2,2-trifluoroethyl)phenyl]-4-{[2-(methyl{[3-(morpholin-4-yl)propyl]sulfonyl}-amino)benzyl]amino}-1H-pyrazolo[4,3-c]pyridine-3-carboxamide]
pIC50 (JAK1): 8.46 | pIC50 (JAK2): 7.83 | pIC50 (JAK3): 7.22 | pIC50 (TYK2): 7.09

CNC(=O)c1n[nH]c2cc(-c3cc(F)c(O)cc3CC(F)(F)F)nc(NCc3cc(C)cnc3N(C)S(C)(=O)=O)c12 [Example 67, 6-[5-fluoro-4-hydroxy-2-(2,2,2-trifluoroethyl)phenyl]-N-methyl-4-[({5-methyl-2-[methyl(methylsulfonyl)amino]pyridin-3-yl}methyl)amino]-1H-pyrazolo[4,3-c]pyridine-3-carboxamide]
pIC50 (JAK1): 7.79 | pIC50 (JAK2): 7.32 | pIC50 (JAK3): 7.14 | pIC50 (TYK2): 5.69

CNC(=O)c1n[nH]c2cc(-c3cc(F)c(O)cc3CC(F)(F)F)nc(NCc3ccccc3N(C)S(=O)(=O)c3cccnc3)c12 [Example 68, 6-[5-fluoro-4-hydroxy-2-(2,2,2-trifluoroethyl)phenyl]-N-methyl-4-({2-[methyl(pyridin-3-ylsulfonyl)amino]-benzyl}amino)-1H-pyrazolo[4,3-c]pyridine-3-carboxamide]
pIC50 (JAK1): 7.85 | pIC50 (JAK2): 7.14 | pIC50 (JAK3): 6.60 | pIC50 (TYK2): 7.14

CNC(=O)c1n[nH]c2cc(-c3cc(F)c(O)cc3CC(F)(F)F)nc(NCc3ccccc3N(C)S(=O)(=O)c3ccc(C)nc3)c12 [Example 69, 6-[5-fluoro-4-hydroxy-2-(2,2,2-trifluoroethyl)phenyl]-N-methyl-4-[(2-{methyl[(6-methylpyridin-3-yl)sulfonyl]amino}benzyl)amino]-1H-pyrazolo[4,3-c]pyridine-3-carboxamide]
pIC50 (JAK1): 7.79 | pIC50 (JAK2): 7.20 | pIC50 (JAK3): 6.59 | pIC50 (TYK2): 7.18

Cc1ccc(S(=O)(=O)N(C)c2ccccc2CNc2nc(-c3cc(F)c(O)cc3CC(F)(F)F)cc3[nH]nc(C(N)=O)c23)cn1 [Example 70, 6-[5-fluoro-4-hydroxy-2-(2,2,2-trifluoroethyl)phenyl]-4-[(2-{methyl[(6-methylpyridin-3-yl)sulfonyl]amino}benzyl)amino]-1H-pyrazolo[4,3-c]pyridine-3-carboxamide]
pIC50 (JAK1): 7.92 | pIC50 (JAK2): 7.28 | pIC50 (JAK3): 6.68 | pIC50 (TYK2): 7.10

CCN(c1ncc(Cl)cc1CNc1nc(-c2cc(F)c(O)cc2CC(F)(F)F)cc2[nH]nc(C(N)=O)c12)S(C)(=O)=O [Example 71, 4-[({5-chloro-2-[ethyl(methylsulfonyl)amino]pyridin-3-yl}methyl)amino]-6-[5-fluoro-4-hydroxy-2-(2,2,2-trifluoroethyl)phenyl]-1H-pyrazolo[4,3-c]pyridine-3-carboxamide]
pIC50 (JAK1): 7.36 | pIC50 (JAK2): 6.81 | pIC50 (JAK3): 6.44 | pIC50 (TYK2): 5.56

CN(c1ncc(Cl)cc1CNc1nc(-c2cc(F)c(O)cc2CC(F)(F)F)cc2[nH]nc(C(N)=O)c12)S(C)(=O)=O [Example 72, 4-[({5-chloro-2-[methyl(methylsulfonyl)amino]pyridin-3-yl}methyl)amino]-6-[5-fluoro-4-hydroxy-2-(2,2,2-trifluoroethyl)phenyl]-1H-pyrazolo[4,3-c]pyridine-3-carboxamide]
pIC50 (JAK1): 7.35 | pIC50 (JAK2): 6.87 | pIC50 (JAK3): 6.70 | pIC50 (TYK2): 5.46

CCc1cc(O)c(F)cc1-c1cc2[nH]nc(C(=O)NC)c2c(NCc2ccccc2N(C)S(N)(=O)=O)n1 [Example 73, 6-(2-ethyl-5-fluoro-4-hydroxyphenyl)-N-methyl-4-({2-[methyl(sulfamoyl)-amino]benzyl}amino)-1H-pyrazolo[4,3-c]pyridine-3-carboxamide]
pIC50 (JAK1): 8.27 | pIC50 (JAK2): 7.73 | pIC50 (JAK3): 7.09 | pIC50 (TYK2): 7.47

Cc1ccc(NC(=O)c2n[nH]c3cc(-c4cc(F)c(O)cc4CC(F)(F)F)nc(NCc4ccccc4N(C)S(C)(=O)=O)c23)cn1 [Example 76, 6-[5-Fluoro-4-hydroxy-2-(2,2,2-trifluoroethyl)phenyl]-4-({2-[methyl(methylsulfonyl)amino]-benzyl}amino)-N-(6-methylpyridin-3-yl)-1H-pyrazolo[4,3-c]pyridine-3-carboxamide]
pIC50 (JAK1): 7.53 | pIC50 (JAK2): 6.95 | pIC50 (JAK3): 6.32 | pIC50 (TYK2): 6.50

CN(c1ccccc1CNc1nc(-c2cc(F)c(O)cc2CC(F)(F)F)cc2[nH]nc(C(N)=O)c12)S(C)(=O)=O [Example 77, 6-[5-Fluoro-4-hydroxy-2-(2,2,2-trifluoroethyl)phenyl]-4-({2-[methyl(methylsulfonyl)amino]benzyl}amino)-1H-pyrazolo[4,3-c]pyridine-3-carboxamide]
pIC50 (JAK1): 8.48 | pIC50 (JAK2): 7.82 | pIC50 (JAK3): 7.20 | pIC50 (TYK2): 7.57

CN(c1ncc(F)cc1CNc1nc(-c2cc(F)c(O)cc2CC(F)(F)F)cc2[nH]nc(C(N)=O)c12)S(C)(=O)=O [Example 78, 6-[5-Fluoro-4-hydroxy-2-(2,2,2-trifluoroethyl)phenyl]-4-[({5-fluoro-2-[methyl(methyl-sulfonyl)amino]pyridin-3-yl}methyl)amino]-1H-pyrazolo[4,3-c]pyridine-3-carboxamide]
pIC50 (JAK1): 8.23 | pIC50 (JAK2): 7.40 | pIC50 (JAK3): 7.05 | pIC50 (TYK2): 6.03

CCN(c1ncc(F)cc1CNc1nc(-c2cc(F)c(O)cc2CC(F)(F)F)cc2[nH]nc(C(N)=O)c12)S(C)(=O)=O [Example 79, 4-[({2-[ethyl(methylsulfonyl)amino]-5-fluoropyridin-3-yl}methyl)amino]-6-[5-fluoro-4-hydroxy-2-(2,2,2-trifluoroethyl)phenyl]-1H-pyrazolo[4,3-c]pyridine-3-carboxamide]
pIC50 (JAK1): 7.97 | pIC50 (JAK2): 7.23 | pIC50 (JAK3): 6.76 | pIC50 (TYK2): 6.16

CCN(c1nccnc1CNc1nc(-c2cc(F)c(O)cc2CC(F)(F)F)cc2[nH]nc(C(N)=O)c12)S(C)(=O)=O [Example 80, 4-[({3-[ethyl(methylsulfonyl)amino]pyrazin-2-yl}methyl)amino]-6-[5-fluoro-4-hydroxy-2-(2,2,2-trifluoroethyl)phenyl]-1H-pyrazolo[4,3-c]pyridine-3-carboxamide]
pIC50 (JAK1): 8.54 | pIC50 (JAK2): 7.79 | pIC50 (JAK3): 7.31 | pIC50 (TYK2): 6.78

CCN(c1ccc(F)cc1CNc1nc(-c2cc(F)c(O)cc2CC(F)(F)F)cc2[nH]nc(C(N)=O)c12)S(C)(=O)=O [Example 83, 4-((2-(N-ethylmethylsulfonamido)-5-fluorobenzyl)amino)-6-(5-fluoro-4-hydroxy-2-(2,2,2-trifluoro-ethyl)phenyl)-1H-pyrazolo[4,3-c]pyridine-3-carboxamide]
pIC50 (JAK1): 7.92 | pIC50 (JAK2): 7.20 | pIC50 (JAK3): 6.70 | pIC50 (TYK2): 6.86

CCN(c1ccc(Cl)cc1CNc1nc(-c2cc(F)c(O)cc2CC(F)(F)F)cc2[nH]nc(C(N)=O)c12)S(C)(=O)=O [Example 84, 4-((5-chloro-2-(N-ethylmethylsulfonamido)benzyl)amino)-6-(5-fluoro-4-hydroxy-2-(2,2,2-trifluoro-ethyl)phenyl)-1H-pyrazolo[4,3-c]pyridine-3-carboxamide]
pIC50 (JAK1): 7.56 | pIC50 (JAK2): 6.85 | pIC50 (JAK3): 6.27 | pIC50 (TYK2): 6.06

CCS(=O)(=O)N(C)c1ccccc1CNc1nc(-c2cc(F)c(O)cc2CC(F)(F)F)cc2[nH]nc(C(N)=O)c12 [Example 85, 6-(5-fluoro-4-hydroxy-2-(2,2,2-trifluoroethyl)phenyl)-4-((2-(N-methylethyl-sulfonamido)benzyl)-amino)-1H-pyrazolo[4,3-c]pyridine-3-carboxamide]
pIC50 (JAK1): 8.11 | pIC50 (JAK2): 7.33 | pIC50 (JAK3): 6.81 | pIC50 (TYK2): 7.09

CCN(c1ncc(C)cc1CNc1nc(-c2cc(F)c(O)cc2CC(F)(F)F)cc2[nH]nc(C(N)=O)c12)S(C)(=O)=O [Example 87, 4-[({2-[ethyl(methylsulfonyl)amino]-5-methylpyridin-3-yl}methyl)amino]-6-[5-fluoro-4-hydroxy-2-(2,2,2-trifluoroethyl)phenyl]-1H-pyrazolo[4,3-c]pyridine-3-carboxamide]
pIC50 (JAK1): 7.51 | pIC50 (JAK2): 7.06 | pIC50 (JAK3): 6.87 | pIC50 (TYK2): 5.60

CN(c1ccc(Cl)cc1CNc1nc(-c2cc(F)c(O)cc2CC(F)(F)F)cc2[nH]nc(C(N)=O)c12)S(C)(=O)=O [Example 89, 4-({5-chloro-2-[methyl(methylsulfonyl)amino]benzyl}amino)-6-[5-fluoro-4-hydroxy-2-(2,2,2-trifluoroethyl)phenyl]-1H-pyrazolo[4,3-c]pyridine-3-carboxamide]
pIC50 (JAK1): 7.84 | pIC50 (JAK2): 7.24 | pIC50 (JAK3): 6.67 | pIC50 (TYK2): 6.04

CCN(c1ccccc1CNc1nc(-c2cc(F)c(O)cc2CC(F)(F)F)cc2[nH]nc(C(N)=O)c12)S(C)(=O)=O [Example 90, 4-({2-[ethyl(methylsulfonyl)amino]benzyl}amino)-6-[5-fluoro-4-hydroxy-2-(2,2,2-trifluoroethyl)-phenyl]-1H-pyrazolo[4,3-c]pyridine-3-carboxamide]
pIC50 (JAK1): 8.57 | pIC50 (JAK2): 7.74 | pIC50 (JAK3): 7.11 | pIC50 (TYK2): 7.63

CCN(c1ccc(C)cc1CNc1nc(-c2cc(F)c(O)cc2CC(F)(F)F)cc2[nH]nc(C(N)=O)c12)S(C)(=O)=O [Example 91, 4-({2-[ethyl(methylsulfonyl)amino]-5-methylbenzyl}amino)-6-[5-fluoro-4-hydroxy-2-(2,2,2-trifluoroethyl)phenyl]-1H-pyrazolo[4,3-c]pyridine-3-carboxamide]
pIC50 (JAK1): 7.54 | pIC50 (JAK2): 6.89 | pIC50 (JAK3): 6.33 | pIC50 (TYK2): 6.06

CN(c1ccc(O)cc1CNc1nc(-c2cc(F)c(O)cc2CC(F)(F)F)cc2[nH]nc(C(N)=O)c12)S(C)(=O)=O [Example 92, 6-[5-Fluoro-4-hydroxy-2-(2,2,2-trifluoroethyl)phenyl]-4-({5-hydroxy-2-[methyl(methylsulfonyl)amino]benzyl}amino)-1H-pyrazolo[4,3-c]pyridine-3-carboxamide]
pIC50 (JAK1): 8.68 | pIC50 (JAK2): 7.87 | pIC50 (JAK3): 7.34 | pIC50 (TYK2): 7.84
